Laboratory results reported in the supplement of paper PMC12463676, “Small-molecule dissolution of stress granules by redox modulation benefits ALS models” (Nature Chemical Biology, 2025).
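Also: each temperature applied for 3 min, abundance score taken as mean log2 fold change at the two lowest temperatures, z-score obtained by mean subtraction and division by SD.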

Chain of UniProt Q13813 (Q13813 whole entry): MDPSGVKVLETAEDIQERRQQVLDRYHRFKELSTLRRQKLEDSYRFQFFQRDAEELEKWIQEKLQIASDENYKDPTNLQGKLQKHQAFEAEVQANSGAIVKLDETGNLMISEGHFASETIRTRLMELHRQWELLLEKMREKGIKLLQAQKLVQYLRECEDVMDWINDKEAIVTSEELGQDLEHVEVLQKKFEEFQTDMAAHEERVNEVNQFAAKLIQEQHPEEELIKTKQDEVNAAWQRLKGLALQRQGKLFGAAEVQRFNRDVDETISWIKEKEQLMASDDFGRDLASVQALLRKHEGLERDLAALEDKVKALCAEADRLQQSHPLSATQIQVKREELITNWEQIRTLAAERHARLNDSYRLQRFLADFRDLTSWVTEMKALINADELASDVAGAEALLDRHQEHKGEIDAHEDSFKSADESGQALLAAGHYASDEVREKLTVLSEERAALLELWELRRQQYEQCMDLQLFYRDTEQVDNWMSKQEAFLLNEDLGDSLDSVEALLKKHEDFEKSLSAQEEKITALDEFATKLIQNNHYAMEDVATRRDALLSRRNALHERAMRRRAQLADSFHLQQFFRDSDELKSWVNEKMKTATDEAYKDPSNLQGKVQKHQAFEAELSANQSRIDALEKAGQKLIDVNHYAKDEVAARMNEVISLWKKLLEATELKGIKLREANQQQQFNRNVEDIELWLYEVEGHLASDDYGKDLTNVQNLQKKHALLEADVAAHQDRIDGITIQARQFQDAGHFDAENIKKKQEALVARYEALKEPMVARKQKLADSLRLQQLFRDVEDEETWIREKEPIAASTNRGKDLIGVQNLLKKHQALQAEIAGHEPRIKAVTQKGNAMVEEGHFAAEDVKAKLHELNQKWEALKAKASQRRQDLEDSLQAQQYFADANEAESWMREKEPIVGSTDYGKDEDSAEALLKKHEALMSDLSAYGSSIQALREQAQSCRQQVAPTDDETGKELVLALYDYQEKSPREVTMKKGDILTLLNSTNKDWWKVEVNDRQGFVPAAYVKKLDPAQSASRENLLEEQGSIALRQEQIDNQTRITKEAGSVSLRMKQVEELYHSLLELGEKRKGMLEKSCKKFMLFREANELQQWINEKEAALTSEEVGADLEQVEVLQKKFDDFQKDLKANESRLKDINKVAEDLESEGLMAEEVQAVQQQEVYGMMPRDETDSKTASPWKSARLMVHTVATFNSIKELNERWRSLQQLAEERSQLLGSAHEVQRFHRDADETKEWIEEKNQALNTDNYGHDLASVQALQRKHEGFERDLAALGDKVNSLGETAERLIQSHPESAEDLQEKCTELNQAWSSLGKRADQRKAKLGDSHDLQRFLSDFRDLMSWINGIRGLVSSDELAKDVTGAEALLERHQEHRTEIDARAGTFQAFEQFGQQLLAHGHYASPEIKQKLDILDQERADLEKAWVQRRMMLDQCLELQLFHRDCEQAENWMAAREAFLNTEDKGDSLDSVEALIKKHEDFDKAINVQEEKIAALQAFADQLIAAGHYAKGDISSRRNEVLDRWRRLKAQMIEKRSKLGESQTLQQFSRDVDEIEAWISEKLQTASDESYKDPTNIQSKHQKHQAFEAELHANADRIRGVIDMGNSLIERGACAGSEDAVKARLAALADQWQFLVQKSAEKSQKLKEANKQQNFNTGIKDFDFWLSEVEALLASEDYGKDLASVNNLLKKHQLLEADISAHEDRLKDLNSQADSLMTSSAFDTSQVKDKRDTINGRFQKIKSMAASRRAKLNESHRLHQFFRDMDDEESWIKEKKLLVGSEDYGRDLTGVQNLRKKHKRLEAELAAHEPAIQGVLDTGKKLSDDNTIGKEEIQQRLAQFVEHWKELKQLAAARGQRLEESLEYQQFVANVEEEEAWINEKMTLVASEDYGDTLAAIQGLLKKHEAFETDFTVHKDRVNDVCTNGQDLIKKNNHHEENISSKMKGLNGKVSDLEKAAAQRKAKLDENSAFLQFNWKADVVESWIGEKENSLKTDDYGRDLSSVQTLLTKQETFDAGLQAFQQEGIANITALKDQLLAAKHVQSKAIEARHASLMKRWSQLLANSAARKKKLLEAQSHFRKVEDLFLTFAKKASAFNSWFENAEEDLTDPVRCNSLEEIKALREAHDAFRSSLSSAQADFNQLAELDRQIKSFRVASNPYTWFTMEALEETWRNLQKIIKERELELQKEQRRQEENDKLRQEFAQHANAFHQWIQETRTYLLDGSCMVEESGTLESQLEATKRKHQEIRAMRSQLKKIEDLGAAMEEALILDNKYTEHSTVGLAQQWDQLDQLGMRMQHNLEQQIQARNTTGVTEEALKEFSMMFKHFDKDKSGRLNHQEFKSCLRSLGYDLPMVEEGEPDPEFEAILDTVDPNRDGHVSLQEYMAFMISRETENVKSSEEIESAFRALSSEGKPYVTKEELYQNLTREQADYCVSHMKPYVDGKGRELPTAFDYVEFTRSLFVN
Chain of UniProt Q32NB8 (Q32NB8 whole entry): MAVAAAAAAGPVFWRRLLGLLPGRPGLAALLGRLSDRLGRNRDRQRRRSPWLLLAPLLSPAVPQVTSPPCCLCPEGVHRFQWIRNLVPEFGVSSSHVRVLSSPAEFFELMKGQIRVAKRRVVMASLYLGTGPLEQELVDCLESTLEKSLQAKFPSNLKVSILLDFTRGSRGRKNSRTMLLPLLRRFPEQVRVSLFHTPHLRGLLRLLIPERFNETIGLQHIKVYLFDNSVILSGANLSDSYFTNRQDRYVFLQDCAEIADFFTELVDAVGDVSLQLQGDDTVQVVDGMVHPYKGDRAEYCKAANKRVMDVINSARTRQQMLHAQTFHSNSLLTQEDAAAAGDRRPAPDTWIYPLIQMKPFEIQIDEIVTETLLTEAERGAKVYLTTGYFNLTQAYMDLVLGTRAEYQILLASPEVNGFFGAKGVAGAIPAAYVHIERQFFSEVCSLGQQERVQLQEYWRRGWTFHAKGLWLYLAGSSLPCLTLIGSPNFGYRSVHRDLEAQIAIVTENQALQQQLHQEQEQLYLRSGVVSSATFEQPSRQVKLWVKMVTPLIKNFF
Chain of UniProt P24534 (P24534 whole entry): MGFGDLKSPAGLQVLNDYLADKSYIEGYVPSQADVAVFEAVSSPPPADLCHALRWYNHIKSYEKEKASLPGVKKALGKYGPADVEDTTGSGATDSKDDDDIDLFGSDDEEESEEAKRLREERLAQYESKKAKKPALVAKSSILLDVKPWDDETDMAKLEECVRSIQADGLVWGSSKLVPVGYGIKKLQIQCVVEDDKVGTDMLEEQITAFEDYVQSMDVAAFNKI
Chain of UniProt O60504 (O60504 whole entry): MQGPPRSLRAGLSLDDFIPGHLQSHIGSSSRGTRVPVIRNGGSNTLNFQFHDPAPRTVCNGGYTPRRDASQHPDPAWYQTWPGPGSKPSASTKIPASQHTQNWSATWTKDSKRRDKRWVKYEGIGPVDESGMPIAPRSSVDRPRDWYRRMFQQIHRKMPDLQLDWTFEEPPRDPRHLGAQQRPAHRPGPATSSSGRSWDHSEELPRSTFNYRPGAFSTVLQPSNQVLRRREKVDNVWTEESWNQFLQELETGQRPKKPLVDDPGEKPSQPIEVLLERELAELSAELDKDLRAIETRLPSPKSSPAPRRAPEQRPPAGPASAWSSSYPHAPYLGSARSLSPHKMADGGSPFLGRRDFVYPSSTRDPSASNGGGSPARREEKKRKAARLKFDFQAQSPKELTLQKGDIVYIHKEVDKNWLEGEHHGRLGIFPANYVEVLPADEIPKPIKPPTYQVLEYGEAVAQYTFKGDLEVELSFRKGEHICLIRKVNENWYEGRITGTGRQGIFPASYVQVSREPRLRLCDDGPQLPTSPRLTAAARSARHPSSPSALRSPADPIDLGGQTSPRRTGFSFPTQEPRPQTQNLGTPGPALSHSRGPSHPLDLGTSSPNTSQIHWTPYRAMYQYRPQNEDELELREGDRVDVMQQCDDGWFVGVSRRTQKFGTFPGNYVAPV
Chain of UniProt Q9H074 (Q9H074 whole entry): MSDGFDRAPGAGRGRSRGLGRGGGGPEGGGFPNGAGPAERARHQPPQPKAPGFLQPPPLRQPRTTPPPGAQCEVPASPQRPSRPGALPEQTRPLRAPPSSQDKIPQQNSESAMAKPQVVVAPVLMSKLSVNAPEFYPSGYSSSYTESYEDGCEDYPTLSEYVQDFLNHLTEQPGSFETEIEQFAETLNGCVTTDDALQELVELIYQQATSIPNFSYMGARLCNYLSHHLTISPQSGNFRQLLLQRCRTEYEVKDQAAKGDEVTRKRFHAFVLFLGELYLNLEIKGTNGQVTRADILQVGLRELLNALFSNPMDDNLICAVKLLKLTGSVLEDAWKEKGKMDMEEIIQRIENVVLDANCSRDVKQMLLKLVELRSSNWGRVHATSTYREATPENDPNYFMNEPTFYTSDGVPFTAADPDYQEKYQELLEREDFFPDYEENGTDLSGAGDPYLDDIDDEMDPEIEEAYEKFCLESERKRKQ
Chain of UniProt Q9BXF6 (Q9BXF6 whole entry): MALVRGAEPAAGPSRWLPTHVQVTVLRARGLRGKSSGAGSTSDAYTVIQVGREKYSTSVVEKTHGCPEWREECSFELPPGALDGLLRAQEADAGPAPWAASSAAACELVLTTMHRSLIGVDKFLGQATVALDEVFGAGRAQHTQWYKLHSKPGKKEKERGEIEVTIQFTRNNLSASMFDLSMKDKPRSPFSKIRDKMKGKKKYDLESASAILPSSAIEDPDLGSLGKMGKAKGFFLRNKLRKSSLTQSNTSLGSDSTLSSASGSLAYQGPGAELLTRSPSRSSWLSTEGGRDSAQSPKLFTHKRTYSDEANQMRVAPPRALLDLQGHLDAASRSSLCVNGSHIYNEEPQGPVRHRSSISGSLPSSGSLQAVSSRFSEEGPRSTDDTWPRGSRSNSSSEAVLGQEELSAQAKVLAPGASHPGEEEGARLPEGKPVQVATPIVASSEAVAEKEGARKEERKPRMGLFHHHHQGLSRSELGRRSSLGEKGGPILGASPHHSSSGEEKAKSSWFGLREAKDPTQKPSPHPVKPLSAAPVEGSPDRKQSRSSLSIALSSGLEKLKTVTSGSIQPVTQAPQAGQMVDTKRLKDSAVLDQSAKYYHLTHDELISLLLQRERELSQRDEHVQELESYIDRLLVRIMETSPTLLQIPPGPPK

What follows are targets tested with NC(=O)CCCCC1CCSS1 [lipoamide] (assay: thermal stability z-score vs DMSO; higher = more thermally stabilized by treatment). Conditions: HeLa; lipoamide concentration 100 µM; arsenate co-treatment: none.
Protocol: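 Cellular thermal proteome profiling in HeLa cells. Cells were treated with 100 µM lipoamide for 1 h, with or without 1 mM arsenate for a further 1 h, then heated to ten temperatures (37-66.3 °C), and soluble protein was quantified by TMT mass spectrometry relative to 0.1% DMSO controls. The thermal stability score (sum of log2 fold changes minus the abundance score) was transformed to a z-score; mean of n = 3 experiments.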
VPS13D (UniProt Q5THJ4) gave a thermal stability z-score of 0.0716.
Target RECQL5 (UniProt O94762) has a thermal stability z-score of 0.0721.
Work on SIRT6 (UniProt Q8N6T7) yielded a thermal stability z-score of -0.176.
PREPL (UniProt Q4J6C6) was tested, and the thermal stability z-score was 0.783.
With PAIP1 (UniProt Q9H074) the thermal stability z-score was 0.836.
TFAM (UniProt Q00059) showed a thermal stability z-score of -0.126.
With CUL4B (UniProt Q13620) the thermal stability z-score was -0.0817.
CASC4 (UniProt Q6P4E1) gave a thermal stability z-score of 0.111.
GPN3 (UniProt Q9UHW5) was tested, and the thermal stability z-score was -0.282.
DHX30 (UniProt Q7L2E3) was tested, and the thermal stability z-score was 0.192.
TRIP11 (UniProt Q15643) showed a thermal stability z-score of -0.484.
With PGS1 (UniProt Q32NB8) the thermal stability z-score was 0.683.
NUDCD2 (UniProt Q8WVJ2) gave a thermal stability z-score of 0.779.
Target SPTAN1 (UniProt Q13813) has a thermal stability z-score of 0.506.
Work on RAB11FIP5 (UniProt Q9BXF6) yielded a thermal stability z-score of -1.43.
MZT2B (UniProt Q6NZ67) was tested, and the thermal stability z-score was 0.181.
For RPL7L1 (UniProt Q6DKI1), the thermal stability z-score was 0.0421.
GTPBP3 (UniProt Q969Y2) showed a thermal stability z-score of 0.272.
TIA1 (UniProt P31483) gave a thermal stability z-score of 0.000117.
In the case of BCKDK (UniProt O14874), the thermal stability z-score is reported as -0.559.
For DDX3X (UniProt O00571), the thermal stability z-score was -0.504.
For EEF1B2 (UniProt P24534), the thermal stability z-score was 0.472.
GET4 (UniProt Q7L5D6) gave a thermal stability z-score of -0.0598.
In the case of IDH3G (UniProt P51553), the thermal stability z-score is reported as -0.664.
Target GTF3C3 (UniProt Q9Y5Q9) has a thermal stability z-score of 0.0153.
PRPF38B (UniProt Q5VTL8) gave a thermal stability z-score of -0.366.
RPL11 (UniProt P62913) gave a thermal stability z-score of 0.371.
For SORBS3 (UniProt O60504), the thermal stability z-score was 0.0779.
PPP2R5A (UniProt Q15172) was tested, and the thermal stability z-score was 0.527.
Work on LRRC59 (UniProt Q96AG4) yielded a thermal stability z-score of -0.195.
DYNLT3 (UniProt P51808) was tested, and the thermal stability z-score was -0.208.
SLC52A2 (UniProt Q9HAB3) showed a thermal stability z-score of 0.164.
With NDUFA12 (UniProt Q9UI09) the thermal stability z-score was 0.06.
With BIN3 (UniProt Q9NQY0) the thermal stability z-score was -0.19.
In the case of TAF6 (UniProt P49848), the thermal stability z-score is reported as -0.089.
PCIF1 (UniProt Q9H4Z3) showed a thermal stability z-score of 0.207.

Each target was assayed with O=[As]([O-])(O)O.[K+] [potassium arsenate] in the same assay as above. Conditions: HeLa; arsenate concentration 1 mM.
Protocol: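 Cellular thermal proteome profiling in HeLa cells treated with 1 mM arsenate for 1 h (DMSO pretreatment), heated to ten temperatures (37-66.3 °C). Soluble protein was quantified by TMT mass spectrometry relative to DMSO controls; the thermal stability score was transformed to a z-score; mean of n = 3 experiments.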
KIF1B (UniProt O60333) showed a thermal stability z-score of -0.321.
ATP6V1G1 (UniProt O75348) was tested, and the thermal stability z-score was 0.295.
In the case of TMEM209 (UniProt Q96SK2), the thermal stability z-score is reported as 1.25.
With ARRDC1 (UniProt Q8N5I2) the thermal stability z-score was 0.121.
Work on SLC15A4 (UniProt Q8N697) yielded a thermal stability z-score of -0.239.
TSC1 (UniProt Q92574) gave a thermal stability z-score of -0.0936.
In the case of ZDHHC17 (UniProt Q8IUH5), the thermal stability z-score is reported as 0.191.
In the case of ATG101 (UniProt Q9BSB4), the thermal stability z-score is reported as 0.678.
HSPA4L (UniProt O95757) showed a thermal stability z-score of 0.388.
With HECTD4 (UniProt Q9Y4D8) the thermal stability z-score was 0.284.
Target PFDN4 (UniProt Q9NQP4) has a thermal stability z-score of -0.445.
PTPMT1 (UniProt Q8WUK0) gave a thermal stability z-score of 0.767.
In the case of ANXA1 (UniProt P04083), the thermal stability z-score is reported as -0.37.
In the case of TXNDC11 (UniProt Q6PKC3), the thermal stability z-score is reported as 0.425.
DCAF7 (UniProt P61962) gave a thermal stability z-score of 1.2.
DHRSX (UniProt Q8N5I4) gave a thermal stability z-score of -0.643.
Work on ATPAF1 (UniProt Q5TC12) yielded a thermal stability z-score of -0.64.
ITGA3 (UniProt P26006) gave a thermal stability z-score of 0.402.
Work on CCDC59 (UniProt Q9P031) yielded a thermal stability z-score of 1.06.
For CNOT6 (UniProt Q9ULM6), the thermal stability z-score was 0.03.
With ANP32B (UniProt Q92688) the thermal stability z-score was -0.513.
TLE2 (UniProt Q04725) was tested, and the thermal stability z-score was 0.141.
PGGT1B (UniProt P53609) was tested, and the thermal stability z-score was 0.268.
Work on FAM173B (UniProt Q6P4H8) yielded a thermal stability z-score of -0.0461.
ENSA (UniProt O43768) gave a thermal stability z-score of 0.481.
STEAP3 (UniProt Q658P3) showed a thermal stability z-score of -0.122.
For HSPE1 (UniProt P61604), the thermal stability z-score was 0.112.
For KANK1 (UniProt Q14678), the thermal stability z-score was 0.739.
FTO (UniProt Q9C0B1) gave a thermal stability z-score of 1.38.
SNRNP200 (UniProt O75643) gave a thermal stability z-score of -0.662.
PSME1 (UniProt Q06323) showed a thermal stability z-score of 0.405.
DSTYK (UniProt Q6XUX3) showed a thermal stability z-score of -0.117.
LRRC45 (UniProt Q96CN5) showed a thermal stability z-score of 0.0892.
For IFI16 (UniProt Q16666), the thermal stability z-score was -0.386.
Target WDR3 (UniProt Q9UNX4) has a thermal stability z-score of -0.0987.
Work on VPS13D (UniProt Q5THJ4) yielded a thermal stability z-score of -0.13.
In the case of RECQL5 (UniProt O94762), the thermal stability z-score is reported as -0.222.
In the case of SIRT6 (UniProt Q8N6T7), the thermal stability z-score is reported as -0.21.
In the case of PREPL (UniProt Q4J6C6), the thermal stability z-score is reported as -0.177.
For PAIP1 (UniProt Q9H074), the thermal stability z-score was 0.0886.
Target TFAM (UniProt Q00059) has a thermal stability z-score of -0.121.
For CUL4B (UniProt Q13620), the thermal stability z-score was -0.051.
For CASC4 (UniProt Q6P4E1), the thermal stability z-score was 0.0247.
Work on GPN3 (UniProt Q9UHW5) yielded a thermal stability z-score of -0.524.
DHX30 (UniProt Q7L2E3) gave a thermal stability z-score of -0.391.
For TRIP11 (UniProt Q15643), the thermal stability z-score was 0.782.
PGS1 (UniProt Q32NB8) gave a thermal stability z-score of -0.266.
For NUDCD2 (UniProt Q8WVJ2), the thermal stability z-score was 0.58.
SPTAN1 (UniProt Q13813) showed a thermal stability z-score of -1.44.
Work on RAB11FIP5 (UniProt Q9BXF6) yielded a thermal stability z-score of 0.895.
Work on MZT2B (UniProt Q6NZ67) yielded a thermal stability z-score of 0.0663.
Target RPL7L1 (UniProt Q6DKI1) has a thermal stability z-score of -0.203.
GTPBP3 (UniProt Q969Y2) showed a thermal stability z-score of 0.354.
Target TIA1 (UniProt P31483) has a thermal stability z-score of -1.08.
With BCKDK (UniProt O14874) the thermal stability z-score was 0.935.
DDX3X (UniProt O00571) gave a thermal stability z-score of -2.07.
Work on EEF1B2 (UniProt P24534) yielded a thermal stability z-score of 0.849.
Work on GET4 (UniProt Q7L5D6) yielded a thermal stability z-score of 0.752.
Target IDH3G (UniProt P51553) has a thermal stability z-score of -0.189.
GTF3C3 (UniProt Q9Y5Q9) gave a thermal stability z-score of -0.461.
PRPF38B (UniProt Q5VTL8) gave a thermal stability z-score of -0.358.
RPL11 (UniProt P62913) was tested, and the thermal stability z-score was -1.44.
SORBS3 (UniProt O60504) gave a thermal stability z-score of -0.323.
With PPP2R5A (UniProt Q15172) the thermal stability z-score was 0.703.
LRRC59 (UniProt Q96AG4) gave a thermal stability z-score of -1.86.
Target DYNLT3 (UniProt P51808) has a thermal stability z-score of -0.596.
With SLC52A2 (UniProt Q9HAB3) the thermal stability z-score was -0.17.
Work on NDUFA12 (UniProt Q9UI09) yielded a thermal stability z-score of 0.611.
BIN3 (UniProt Q9NQY0) was tested, and the thermal stability z-score was -0.201.
In the case of TAF6 (UniProt P49848), the thermal stability z-score is reported as 0.318.
Work on PCIF1 (UniProt Q9H4Z3) yielded a thermal stability z-score of -0.0419.
